Molecular target: T1, FAM195A (Homo sapiens, UniProt Q9BUT9)
T1 construct: endogenous in cells; host or cells: MCF7 whole cell lysate
Experiment: Competitive affinity-based chemoproteomics (UNC0965 matrix), MCF7 lysate
Assay type: binding
Conditions: 20 μM competitor, n=2
Description: A-366 and UNC0638 were purchased from Tocris. ARIAD and V-11-07-11 were purchased from Wuxi Apptec. UNC0737 and UNC0965 were synthesised as previously described.[1] Hemicholinium-3 and pyruvate kinase/lactic dehydrogenase enzymes were purchased from Sigma Aldrich. Aqueous and organic solvents were MS-grade and acquired by Sigma Aldrich unless stated otherwise.
MDA-MB-231, MCF7 and HEK293 cells were cultured in DMEM (Gibco, #11965092) supplemented with 10% FBS. K562 were cultured in IMDM (Gibco, #12440053) supplemented with 10% FBS. HepG2 were cultured in MEM (Gibco, #11095080) supplemented with 10 % FBS. […]
cultured in McCoy’s 5A (Sigma, M8403) supplemented with 10 % FBS and 1x GlutaMAX (Gibco, #35050061). Cells were maintained at 37 °C in a humidified 5% CO2 atmosphere. Peripheral blood mononuclear cells (PBMC) were isolated from healthy blood donors by density centrifugation. […]
Cell Titer-Glo® reagent was added to each well and total luminescence readings were performed within 15 min using the PHERAstar FSX (BMG Labtech). […]
Digested samples were analysed by nano-UPLC–MS/MS using a Dionex Ultimate 3000 nano UPLC fitted with an EASY spray column (75 μm × 500 mm, 2 μm particle size, Thermo Scientific), coupled to an Orbitrap Q Exactive instrument. […]

T1 sequence (Q9BUT9 whole entry): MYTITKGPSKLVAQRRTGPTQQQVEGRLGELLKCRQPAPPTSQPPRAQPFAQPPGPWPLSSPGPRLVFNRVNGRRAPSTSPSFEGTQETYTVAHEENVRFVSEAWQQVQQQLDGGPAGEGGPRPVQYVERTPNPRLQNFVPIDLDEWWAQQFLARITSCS

COc1cc2c(NC3CCN(C(C)C)CC3)nc(C3CCCCC3)nc2cc1OCCCN1CCCC1 [UNC0638]
FC vs DMSO (log2 competition), FAM195A: -1.845

COc1cc2c(N(C)C3CCN(C(C)C)CC3)nc(C3CCCCC3)nc2cc1OCCCN1CCCC1 [UNC0737]
FC vs DMSO (log2 competition), FAM195A: -0.06296

— publication PMC11811597, “Phenomics‐Based Discovery of Novel Orthosteric Choline Kinase Inhibitors” (Angewandte Chemie (International Ed. in English), 2025)
